Data from patent publication US12365668B2, “Aminopyrazine diol compounds as PI3K-y inhibitors” (Incyte Corporation, priority 2018, dated 2025).

Tests used:
[1] = target: PI3Kγ (p110γ) Recombinant Human Protein (Homo sapiens (Human), UniProt P48736); assay: PI3K-γ Scintillation Proximity Assay; format: biochemical; conditions: 20 μM PIP2, 2 μM ATP, SPA
From the text: Example B. PI3K-γ Scintillation Proximity Assay Materials: [γ-^33P]ATP (10 mCi/mL) and Wheat Germ Agglutinin (WGA) YSi SPA Scintillation Beads was purchased from Perkin Elmer (Waltham, MA). Lipid kinase substrate, D-myo-Phosphatidylinositol 4,5-bisphosphate (PtdIns(4,5)P2)D (+)-sn-1,2-di-O-octanoylglyceryl, 3-O-phospho linked (PIP2), CAS 204858-53-7, was purchased from Echelon Biosciences (Salt Lake City, UT). PI3Kγ (p110γ) Recombinant Human Protein was purchased from Life technology (Grand Island, NY). ATP, MgCl2, DTT, EDTA, MOPS and CHAPS were purchased from Sigma Aldrich (St. Louis, MO). The kinase reaction was conducted in polystyrene 384-well Greiner Bio-one white plate from Thermo Fisher Scientific in a final volume of 25 μL. Inhibitors were first diluted serially in DMSO and added to the plate wells before the addition of other reaction components. The final concentration of DMSO in the assay was 2%. The PI3Kγ assay was carried out at room temperature in 20 mM MOPS, pH 6.7, 10 mM MgCl2, 5 mM DTT and CHAPS 0.03%. Reactions were initiated by the addition of ATP, the final reaction mixture consisted of 20 μM PIP2, 2 μM ATP, 0.5 μCi [γ-^33P] ATP, 13 nM PI3Kγ. Reactions were incubated for 120 min and terminated by the addition of 40 μL SPA beads suspended in quench buffer: 163 mM potassium phosphate pH 7.8, 20% glycerol, 25 mM EDTA. The final concentration of SPA beads is 1.0 mg/mL. After the plate sealing, plates were shaken overnight at room temperature and centrifuged at 1500 rpm for 10 min, the radioactivity of the product was determined by scintillation counting on Topcount (Perkin-Elmer). IC50 determination was performed by fitting the curve of percent of the solvent control activity versus the log of the inhibitor concentration using the GraphPad Prism 6.0 software.

[2] = target: PI3Kδ (p110δ/p85α) Recombinant Human Protein (Homo sapiens (Human), UniProt O00329); assay: PI3Kδ Scintillation Proximity Assay; format: biochemical; conditions: 20 μM PIP2, 2 μM ATP, SPA
Chain of PI3Kδ (p110δ/p85α) Recombinant Human Protein (O00329 whole entry): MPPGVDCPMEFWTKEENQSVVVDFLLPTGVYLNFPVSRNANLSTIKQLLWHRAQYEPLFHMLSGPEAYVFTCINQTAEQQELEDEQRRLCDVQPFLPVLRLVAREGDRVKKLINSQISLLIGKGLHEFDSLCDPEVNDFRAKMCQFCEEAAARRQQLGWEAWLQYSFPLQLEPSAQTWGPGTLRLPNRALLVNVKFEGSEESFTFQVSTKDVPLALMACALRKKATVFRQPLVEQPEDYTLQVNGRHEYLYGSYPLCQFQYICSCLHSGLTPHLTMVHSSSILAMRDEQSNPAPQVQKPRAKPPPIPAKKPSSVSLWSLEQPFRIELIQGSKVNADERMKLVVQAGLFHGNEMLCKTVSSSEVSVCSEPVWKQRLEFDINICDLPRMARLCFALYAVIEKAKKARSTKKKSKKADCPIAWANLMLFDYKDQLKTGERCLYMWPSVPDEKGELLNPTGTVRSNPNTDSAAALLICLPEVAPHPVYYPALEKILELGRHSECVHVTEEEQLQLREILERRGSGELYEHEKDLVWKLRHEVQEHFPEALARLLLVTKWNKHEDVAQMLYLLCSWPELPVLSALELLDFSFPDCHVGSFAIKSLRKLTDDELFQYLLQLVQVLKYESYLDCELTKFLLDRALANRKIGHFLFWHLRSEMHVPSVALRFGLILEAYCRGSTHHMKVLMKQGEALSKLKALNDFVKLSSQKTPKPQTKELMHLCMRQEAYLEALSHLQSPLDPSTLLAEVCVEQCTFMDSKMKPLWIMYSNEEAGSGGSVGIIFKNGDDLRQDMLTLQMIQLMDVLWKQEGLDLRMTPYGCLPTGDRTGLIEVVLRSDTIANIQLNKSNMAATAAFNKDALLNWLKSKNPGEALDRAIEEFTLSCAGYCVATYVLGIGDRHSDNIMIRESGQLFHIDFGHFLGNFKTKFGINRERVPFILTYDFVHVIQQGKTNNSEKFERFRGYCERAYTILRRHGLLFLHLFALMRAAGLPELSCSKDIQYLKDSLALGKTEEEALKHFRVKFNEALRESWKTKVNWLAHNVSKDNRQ
Chain of PI3Kδ (p110δ/p85α) Recombinant Human Protein (P27986 whole entry partner): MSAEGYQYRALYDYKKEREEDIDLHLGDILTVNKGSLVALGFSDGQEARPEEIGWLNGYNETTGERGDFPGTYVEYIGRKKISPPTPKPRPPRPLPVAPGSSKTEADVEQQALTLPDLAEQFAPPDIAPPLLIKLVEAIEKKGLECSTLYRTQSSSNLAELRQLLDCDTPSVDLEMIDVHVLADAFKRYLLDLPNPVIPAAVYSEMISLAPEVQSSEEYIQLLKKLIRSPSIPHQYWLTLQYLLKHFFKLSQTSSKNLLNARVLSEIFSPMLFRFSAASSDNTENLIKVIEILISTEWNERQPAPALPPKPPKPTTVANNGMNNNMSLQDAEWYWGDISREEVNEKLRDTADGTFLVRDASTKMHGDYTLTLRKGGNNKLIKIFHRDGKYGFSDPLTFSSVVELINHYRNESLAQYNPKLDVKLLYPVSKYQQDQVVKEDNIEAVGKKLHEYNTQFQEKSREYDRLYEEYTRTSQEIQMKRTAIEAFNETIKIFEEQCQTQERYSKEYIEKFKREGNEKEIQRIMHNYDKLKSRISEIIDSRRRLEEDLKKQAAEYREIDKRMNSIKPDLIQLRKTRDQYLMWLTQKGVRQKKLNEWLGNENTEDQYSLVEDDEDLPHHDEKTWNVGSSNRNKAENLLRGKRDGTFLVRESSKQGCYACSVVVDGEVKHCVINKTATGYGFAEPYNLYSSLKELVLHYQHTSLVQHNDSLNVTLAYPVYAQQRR
From the text: Example C. PI3Kδ Scintillation Proximity Assay Materials: [γ-^33P]ATP (10 mCi/mL) and Wheat Germ Agglutinin (WGA) YSi SPA Scintillation Beads was purchased from Perkin Elmer (Waltham, MA). Lipid kinase substrate, D-myo-Phosphatidylinositol 4,5-bisphosphate (PtdIns(4,5)P2)D (+)-sn-1,2-di-O-octanoylglyceryl, 3-O-phospho linked (PIP2), CAS 204858-53-7, was purchased from Echelon Biosciences (Salt Lake City, UT). PI3Kδ (p110δ/p85α) Recombinant Human Protein was purchased from Eurofins (St Charles, MO). ATP, MgCl2, DTT, EDTA, MOPS and CHAPS were purchased from Sigma Aldrich (St. Louis, MO). The kinase reaction was conducted in polystyrene 384-well Greiner Bio-one white plate from Thermo Fisher Scientific in a final volume of 25 μL. Inhibitors were first diluted serially in DMSO and added to the plate wells before the addition of other reaction components. The final concentration of DMSO in the assay was 2%. The PI3Kδ assay was carried out at room temperature in 20 mM MOPS, pH 6.7, 10 mM MgCl2, 5 mM DTT and CHAPS 0.03%. Reactions were initiated by the addition of ATP, the final reaction mixture consisted of 20 μM PIP2, 2 μM ATP, 0.5 μCi [γ-^33P] ATP, 3.4 nM PI3Kδ. Reactions were incubated for 120 min and terminated by the addition of 40 μL SPA beads suspended in quench buffer: 163 mM potassium phosphate pH 7.8, 20% glycerol, 25 mM EDTA. The final concentration of SPA beads is 1.0 mg/mL. After the plate sealing, plates were shaken overnight at room temperature and centrifuged at 1500 rpm for 10 min, the radioactivity of the product was determined by scintillation counting on Topcount (PerkinElmer). IC50 determination was performed by fitting the curve of percent of the solvent control activity versus the log of the inhibitor concentration using the GraphPad Prism 6.0 software.

[3] = tested on: Phosphorylated Ribosomal Protein S6 (RPS6) in THP-1 cells; assay: THP-1 RPS6 ELISA Assay; format: cell-based, Human; conditions: Homo sapiens, serum starved, 2 hours compound, 10 nM MCP-1 for 15 minutes, Phospho-RPS6 ELISA, read-out: PI3Kγ_THP1_RPS6_ELISA IC50
Method: Example A. THP-1 RPS6 ELISA Assay
To measure the Phosphorylated Ribosomal Protein S6 (RPS6) in cell lysates, THP-1 cells (Human Acute Monocytic Leukemia) are purchased from ATCC (Manassas, VA) and maintained in RPMI with 10% FBS (Gibco/Life Technologies, Carlsbad, CA). For the assay, THP-1 cells are serum starved overnight in RPMI, then plated in RPMI (2×10^5 cells/well in 90 μL) into 96-well flat-bottom tissue culture treated plates (Corning, Corning, NY), in the presence or absence of a concentration range of test compounds. Covered plates are incubated for 2 hours at 37° C., 5% CO2 then treated with or without 10 nM MCP-1(MYBioSource, San Diego, CA) for 15 minutes at 37° C., 5% CO2. Plates are centrifuged at 1600 RPM and supernatants are removed. Cells are lysed in Lysis Buffer (Cell Signaling, Danvers, MA) with Protease Inhibitor (Calbiochem/EMD, Germany), PMSF (Sigma, St Louis MO), HALTS (Thermo Fisher, Rockford, IL) for 30 min on wet ice. Cell lysates are frozen at −80° C. before testing. The lysates are tested in the Human/Mouse/Rat Phospho-RPS6 ELISA (R&D Systems, Inc. Minn, MN). The plate is measured using a microplate reader (SpectraMax M5—Molecular Devices, LLC Sunnyvale, CA) set to 450 nm with a wavelength correction of 540. IC50 determination is performed by fitting the curve of inhibitor percent inhibition versus the log of the inhibitor concentration using the GraphPad Prism 5.0 software.

Chain of PI3Kγ (p110γ) Recombinant Human Protein (P48736 whole entry): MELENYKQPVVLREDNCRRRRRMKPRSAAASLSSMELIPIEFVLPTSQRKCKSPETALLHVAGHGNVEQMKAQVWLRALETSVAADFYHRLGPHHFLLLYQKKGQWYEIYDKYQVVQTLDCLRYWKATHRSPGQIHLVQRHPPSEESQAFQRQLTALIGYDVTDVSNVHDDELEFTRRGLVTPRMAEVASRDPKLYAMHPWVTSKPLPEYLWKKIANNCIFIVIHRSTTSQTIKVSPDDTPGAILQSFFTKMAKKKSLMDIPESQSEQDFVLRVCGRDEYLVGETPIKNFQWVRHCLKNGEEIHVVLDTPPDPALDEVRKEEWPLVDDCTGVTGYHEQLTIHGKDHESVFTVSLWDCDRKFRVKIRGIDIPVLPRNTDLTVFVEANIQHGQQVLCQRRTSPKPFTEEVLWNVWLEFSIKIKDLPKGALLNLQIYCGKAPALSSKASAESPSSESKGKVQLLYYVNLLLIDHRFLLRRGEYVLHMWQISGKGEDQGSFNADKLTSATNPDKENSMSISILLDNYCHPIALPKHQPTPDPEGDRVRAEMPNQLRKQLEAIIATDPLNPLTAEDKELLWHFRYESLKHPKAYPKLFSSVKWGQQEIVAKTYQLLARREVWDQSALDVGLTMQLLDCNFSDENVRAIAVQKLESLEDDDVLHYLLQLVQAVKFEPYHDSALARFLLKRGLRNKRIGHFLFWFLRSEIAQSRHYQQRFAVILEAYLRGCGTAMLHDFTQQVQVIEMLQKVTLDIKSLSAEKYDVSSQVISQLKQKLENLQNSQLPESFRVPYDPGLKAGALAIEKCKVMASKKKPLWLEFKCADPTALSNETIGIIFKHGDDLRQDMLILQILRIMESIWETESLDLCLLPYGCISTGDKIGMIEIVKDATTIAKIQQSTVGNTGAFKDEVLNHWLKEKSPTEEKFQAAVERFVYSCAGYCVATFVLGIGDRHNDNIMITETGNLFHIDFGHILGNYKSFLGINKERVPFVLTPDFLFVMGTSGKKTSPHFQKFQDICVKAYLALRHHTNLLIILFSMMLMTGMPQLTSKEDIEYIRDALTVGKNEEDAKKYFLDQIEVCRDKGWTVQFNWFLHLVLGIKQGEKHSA

IC50 [1] [nM]	IC50 [2] [nM]	IC50 [3] [nM]	Compound
≤ 100	≤ 100	–	Cc1ccc(C(O)(CO)C(F)(F)F)cc1-c1cnc(N)c(-n2ccnn2)n1 (stereo not shown) [Example 13, 2-(3-(5-Amino-6-(1H-1,2,3-triazol-1-yl)pyrazin-2-yl)-4-methylphenyl)-3,3,3-trifluoropropane-1,2-diol]
–	–	100 to 500	[2H]C([2H])([2H])c1ccc([C@](O)(CO)C(F)(F)F)cc1-c1cnc(N)c(C(=O)N[C@H](C)CO)n1 [Example 36, 3-Amino-N-((R)-1-hydroxypropan-2-yl)-6-(2-(methyl-d3)-5-((S)-1,1,1-trifluoro-2,3-dihydroxypropan-2-yl)phenyl)pyrazine-2-carboxamide]
–	–	100 to 500	Cc1ccc(C(O)(CO)C(F)(F)F)cc1-c1cnc(N)c(C2CC(C(=O)N3CC(O)C3)C2)n1 (single isomer, unassigned) [Example 24, (3-(3-Amino-6-(2-methyl-5-(1,1,1-trifluoro-2,3-dihydroxypropan-2-yl)phenyl)pyrazin-2-yl)cyclobutyl)(3-hydroxyazetidin-1-yl)methanone]
–	100 to 500	–	Cc1ccc(C(O)(C(C)(C)O)C(F)(F)F)cc1-c1cnc(N)c(C(=O)NC2CCOCC2)n1 (stereo not shown) [Example 22, 3-Amino-6-(2-methyl-5-(1,1,1-trifluoro-2,3-dihydroxy-3-methylbutan-2-yl)phenyl)-N-(tetrahydro-2H-pyran-4-yl)pyrazine-2-carboxamide]
≤ 100	≤ 100	–	Cc1ccc(C(O)(CO)C(F)(F)F)cc1-c1cnc(N)c(-c2cnsc2)n1 (stereo not shown) [Example 5, 2-(3-(5-Amino-6-(isothiazol-4-yl)pyrazin-2-yl)-4-methylphenyl)-3,3,3-trifluoropropane-1,2-diol]
≤ 100	≤ 100	–	Cc1ccc(C(O)(CO)C(F)(F)F)cc1-c1cnc(N)c(-c2cn[nH]c2)n1 (stereo not shown) [Example 3, 2-(3-(5-Amino-6-(1H-pyrazol-4-yl)pyrazin-2-yl)-4-methylphenyl)-3,3,3-trifluoropropane-1,2-diol]
–	100 to 500	100 to 500	Cc1ccc(C(O)(CO)C(F)(F)F)cc1-c1cnc(N)c(C2CN(S(=O)(=O)c3ccn(C)n3)C2)n1 (stereo not shown) [Example 23, 2-(3-(5-Amino-6-(1-((1-methyl-1H-pyrazol-3-yl)sulfonyl)azetidin-3-yl)pyrazin-2-yl)-4-methylphenyl)-3,3,3-trifluoropropane-1,2-diol]
≤ 100	≤ 100	–	Cc1cc(-c2nc(-c3cc(C(O)(CO)C(F)(F)F)ccc3C)cnc2N)on1 (stereo not shown) [Example 4, 2-(3-(5-Amino-6-(3-methylisoxazol-5-yl)pyrazin-2-yl)-4-methylphenyl)-3,3,3-trifluoropropane-1,2-diol]
–	100 to 500	100 to 500	Cc1ccc([C@](O)(CO)C(F)F)cc1-c1cnc(N)c(C(=O)N[C@@H](C)CO)n1 (single isomer, unassigned) [Example 43]
≤ 100	≤ 100	–	Cc1cc(-c2nc(-c3cc(C(O)(CO)C(F)(F)F)ccc3C)cnc2N)sn1 (stereo not shown) [Example 7, 2-(3-(5-amino-6-(3-methylisothiazol-5-yl)pyrazin-2-yl)-4-methylphenyl)-3,3,3-trifluoropropane-1,2-diol]
≤ 100	≤ 100	–	Cc1ccc(C(O)(CO)C(F)(F)F)cc1-c1cnc(N)c(-c2cnn(C)c2)n1 (stereo not shown) [Example 2, 2-(3-(5-Amino-6-(1-methyl-1H-pyrazol-4-yl)pyrazin-2-yl)-4-methylphenyl)-3,3,3-trifluoropropane-1,2-diol]
≤ 100	≤ 100	–	Cc1ccc(C(O)(CO)C(F)(F)F)cc1-c1cnc(N)c(-c2ccns2)n1 (stereo not shown) [Example 6, 2-(3-(5-Amino-6-(isothiazol-5-yl)pyrazin-2-yl)-4-methylphenyl)-3,3,3-trifluoropropane-1,2-diol]
–	–	100 to 500	[2H]C([2H])([2H])c1ccc([C@](O)(CO)C(F)F)cc1-c1cnc(N)c(C(=O)N[C@H]2CCCC[C@@H]2O)n1 [Example 38, 3-Amino-6-(5-((S)-1,1-difluoro-2,3-dihydroxypropan-2-yl)-2-(methyl-d3)phenyl)-N-((1S,2S)-2-hydroxycyclohexyl)pyrazine-2-carboxamide]
–	–	100 to 500	[2H]C([2H])([2H])c1ccc(C(O)(C(C)O)C(F)(F)F)cc1-c1cnc(N)c(C(=O)NC2CCOCC2)n1 (single isomer, unassigned) [Example 19, 3-Amino-6-(2-(methyl-d3)-5-(1,1,1-trifluoro-2,3-dihydroxybutan-2-yl)phenyl)-N-(tetrahydro-2H-pyran-4-yl)pyrazine-2-carboxamide]
–	100 to 500	–	[2H]C([2H])([2H])c1ccc(C(O)(C(O)C(F)(F)F)C(F)(F)F)cc1-c1cnc(N)c(-c2c[nH]nc2C)n1 (stereo not shown) [Example 20, 2-(3-(5-Amino-6-(3-methyl-1H-pyrazol-4-yl)pyrazin-2-yl)-4-(methyl-d3)phenyl)-1,1,1,4,4,4-hexafluorobutane-2,3-diol]
≤ 100	≤ 100	–	Cc1ncc(-c2nc(-c3cc(C(O)(CO)C(F)(F)F)ccc3C)cnc2N)s1 (stereo not shown) [Example 10, 2-(3-(5-Amino-6-(2-methylthiazol-5-yl)pyrazin-2-yl)-4-methvlphenyl)-3,3,3-trifluoropropane-1,2-diol]
–	–	100 to 500	[2H]C([2H])([2H])c1ccc([C@](O)(CO)C(F)F)cc1-c1cnc(N)c(C(=O)N[C@@H]2CCCC[C@H]2O)n1 [Example 39, 3-Amino-6-(5-((S)-1,1-difluoro-2,3-dihydroxypropan-2-yl)-2-(methyl-d3)phenyl)-N-((1R,2R)-2-hydroxycyclohexyl)pyrazine-2-carboxamide]
≤ 100	≤ 100	–	Cc1ccc(C(O)(CO)C(F)(F)F)cc1-c1cnc(N)c(-c2cnco2)n1 (stereo not shown) [Example 11, 2-(3-(5-Amino-6-(oxazol-5-yl)pyrazin-2-yl)-4-methylphenyl)-3,3,3-trifluoropropane-1,2-diol]

Compound	IC50 [1] [nM]	IC50 [2] [nM]	IC50 [3] [nM]
Cc1ccc([C@](O)(CO)C(F)F)cc1-c1cnc(N)c(C(=O)NC(C)C)n1 [Example 46, (S)-3-Amino-6-(5-(1,1-difluoro-2,3-dihydroxypropan-2-yl)-2-methylphenyl)-N-isopropylpyrazine-2-carboxamide]	≤ 100	≤ 100	–
